Results as given in a melting point compilation (Tetko et al.; mined from patent text by program, amines drawn as free bases though some values may be those of a salt).

melting point	SMILES
159 °C	Cc1ccc2nc(Cl)c(C#N)c(Cl)c2c1
145 to 147 °C	NC[C@H]1C=Cc2cc(F)cc(-c3ccccc3Cl)c2O1
150 °C	CC(C)c1ccc(S(=O)(=O)n2c(Cc3ccc(C(=O)O)c(O)c3)cc3cc(C(F)(F)F)ccc32)cc1
257 to 260 °C	Cc1ccc(-c2noc3c(Cl)c(OCC(=O)O)ccc23)cc1
216 to 217 °C	O=C(O)CCC1c2ccccc2-c2ccccc21
157 to 158 °C	CCOc1ccc2c(c1)c(-c1ccc3c(c1)OCO3)c(C(=O)OC)c(=O)n2Cc1ccccc1OC
150 to 152 °C	Cc1nc2cccc3n(CC4CCN(S(=O)(=O)C(F)(F)F)CC4)c(=O)c1n23
119 °C	Cc1cccnc1NN
142 to 143 °C	O=C(NNC(=O)c1occ(-c2ccccc2)c1-c1ccccc1)c1ccc(O)c(C(F)(F)F)c1
116 to 119 °C	O=C(C=Cc1cccnc1)NCC=CCN1CCN(C(c2ccccc2)c2ccccc2)CC1
87 to 89 °C	COc1ccnc(CO)c1OC
175 to 177 °C	COC(=O)c1cc([N+](=O)[O-])c(C(F)(F)F)cc1N
175 °C	CCCOc1ncc(NCC(=O)OC)cc1-c1nc2c(CCC)nn(C)c2c(=O)[nH]1
160 to 162 °C	Cc1cc(F)ccc1-c1nc(NC(C)(CO)CO)nc2c1ccc(=O)n2-c1ccccc1F
153 to 155 °C	CC(C)(C)c1cc(-c2nc(CS(C)(=O)=O)no2)cc(C(C)(C)C)c1O
162 to 163 °C	Cc1c(NC(=O)c2ccc(-c3ccc(Cl)cc3Cl)cc2F)ccc2cc(CN3CCCC3)cnc12
163 to 165 °C	CCN(c1ccc(Cl)cc1C(=O)O)S(=O)(=O)c1ccc(C)cc1
170 to 172 °C	CCc1ccc2oc(C(=O)Nc3ccc(-c4ccc(S(=O)(=O)NC(C(=O)OC)C(C)C)cc4)cc3)c(C)c2c1OC (centres undefined)
272 to 274 °C	N=C(NO)c1ccc(-c2ccc(-c3ccc(C(=N)NO)cn3)o2)nc1
> 250 °C	CS(=O)(=O)Nc1cc2occ(C(=O)O)c(=O)c2cc1Oc1ccccc1
255 to 258 °C	CS(=O)(=O)Nc1ccc2c(c1)S(=O)(=O)NC(C1CCCCC1)N2 (centres undefined)

melting point	SMILES
86.5 to 88.5 °C	ClC1=NC(C2CC2)Nc2cscc21 (centres undefined)
179 to 180 °C	COc1cc(OC)c2c(=O)[nH]c(-c3ccc(OCCNC(C)C)c(-c4ccccc4)n3)nc2c1
101 to 103 °C	C#CCC(NC(=O)c1ccccc1)C(C)=O (centres undefined)
174 to 176 °C	COC(=O)Cn1cc2c(c1C)-c1ccc(Cl)cc1C(c1ccccc1Cl)=NC2
56.5 to 57 °C	ClCCCc1nc2ccccn2n1
111 to 112 °C	CCn1c(-c2ccccc2)c(C2=CCC(C(=O)O)(C(=O)O)CC2)c2ccccc21
105 °C	CSc1sc(C(N)=O)c(C(C)C)c1-c1oncc1C
106 to 107 °C	O=C1Cn2cccc2Sc2ccc(Cl)cc21
96 to 97 °C	CCOC(=O)n1nc2c(c1N)CN(C(=O)N[C@H](CN(C)C)c1ccccc1)C2(C)C
271 °C	Cc1cc(C#N)cc(C)c1Oc1nc(Nc2ccc(C#N)cc2)nc(N)c1Br
30 to 32 °C	CCOc1nc(Cl)ncc1F
85 °C	CCCCc1ccc(-c2ccc(CCc3ccc(C(F)(F)F)cc3)cc2)cc1
117 to 118 °C	CN(C(=O)c1ccc(Cl)cc1)c1ccccc1CCCC(C(=O)O)C(=O)O
62.5 to 63 °C	CCOC(C#Cc1cc(OC)c(OC)c(OC)c1)OCC
130 to 132 °C	Nc1cccc(-c2ccc(CCN3CCc4ccccc4C3)cc2)n1
252 to 253 °C	CCn1nc(-c2ccncc2)c(C(C)=O)c(Nc2ccc(C(=O)O)cc2)c1=O
39 to 41 °C	COC(=O)COc1ccc(C=O)cc1
189 to 190 °C	CC(C)n1nc(-c2c(-c3ccccc3)nn3ccc(C(=O)N4CCCC4)cc23)ccc1=O
> 260 °C	CC(=O)Nc1nc(N)nc(C2CCC(c3ccccc3)CC2)n1 (centres undefined)
77 to 79 °C	COC(=O)c1cc(OCCCOc2ccccc2-c2ccccc2)cc(OCCCOc2ccccc2-c2ccccc2)c1
258 to 260 °C	O=C(O)c1ccc(O)c(C(=O)C=Cc2ccc(OCc3ccc4ccccc4n3)cc2)c1

Continued, compound first:

SMILES	melting point
C#CCOc1cc(-c2ncc(C(F)(F)F)c(C)c2Cl)c(F)cc1Cl	95 to 98 °C
COc1ccc(CCC(=O)c2ccc(O)cc2O)c(OC)c1C	171 °C
CC(=O)C(=O)Oc1ccc(NCc2c(F)c(F)c(C(F)(F)F)c(F)c2F)cc1C(=O)O	128 °C
CC(=O)OCC[C@H](NC(=O)C(F)(F)F)C(=O)O	134 to 136 °C
Cc1cc(Cn2nnc(C(N)=O)c2N)ccc1C(=O)c1ccccc1	181 to 182 °C
CCCCC(=O)Oc1c(-c2ccc(-c3ccccc3)cc2)nc2ccc(F)cc2c1C(=O)O	214 to 217 °C
CCCOc1ccc(C(=O)O)cc1-c1ccc(C#N)c(=O)[nH]1	277 to 279 °C
Cc1ccc(C2c3c(C)c(N4CCN(c5ccccc5[N+](=O)[O-])CC4)c(C)c(C)c3OC2(C)C)cc1 (centres undefined)	178 to 180 °C
COc1cc(Nc2c(C#N)cnc3cc(-c4cc5ccccc5s4)ccc23)c(Cl)cc1Cl	269 to 270 °C
Cc1cc(SC(Sc2cc(C)c(O)c(C(C)(C)C)c2)Sc2cc(C)c(O)c(C(C)(C)C)c2)cc(C(C)(C)C)c1O	171 to 172 °C
COc1ccc(Cc2cc3cc(C#N)ccc3o2)cc1	78 to 80 °C
NC(=O)c1csc2ccc([N+](=O)[O-])cc12	243 to 250 °C
CC(CO[N+](=O)[O-])NC(=O)[C@@H]1CSC(=O)N1 (some centres undefined)	112 to 114 °C
CC(Br)=C(c1ccc(F)cc1)c1ccc(F)cc1	53 to 54 °C
CCCCN1CCC(CNC(=O)c2cc(Cl)cc3c2OCCO3)C(O)C1 (centres undefined)	112 °C
CCc1cccc2c(C=O)cc(OC)c(O)c12	114 to 115 °C
Brc1ccccc1Cc1nc(-c2ccncc2)cs1	114 to 116 °C
c1ccc(COc2ccc(OCCN3CCN(c4ccccc4)CC3)cc2)cc1	116 to 119 °C
CC(CO)NC(=O)COc1ccc(CCNS(=O)(=O)c2ccccc2)cc1 (centres undefined)	90 to 91 °C

SMILES	melting point
CC(=O)OC1CC(=O)N(CC(N)=O)C1 (centres undefined)	84 to 86 °C
CCOP(=O)(OCC)C(c1ccc2cc(O)ccc2c1)P(=S)(OCC)OCC (centres undefined)	85.5 to 86.5 °C
CN(C)CCCC1(O)c2ccccc2COc2ccc(C3=NC(C)(C)CO3)cc21 (centres undefined)	166 to 167 °C
COc1cc(-c2c(Cl)c(CN3C(=O)CCC3=O)nc3sc4c(c23)CCN(C(C)=O)C4)ccc1O	273 to 275 °C
COc1cccc(OC)c1-c1nc2c(N[C@H]3[C@@H](C(N)=O)[C@@H]4C=C[C@H]3C4)c(Br)cnc2[nH]1	194 to 197 °C
CCOc1cccc(C2NC(C(=O)O)CS2)c1OCCO[N+](=O)[O-] (centres undefined)	124 to 125 °C
Clc1ccc2ccc(/C=C/c3ccc(CN4CCc5cccc(CCc6nnn[nH]6)c54)cc3)nc2c1	83 to 87 °C
CC(=O)c1ccc(C(C)Oc2cncc(C(=O)Nc3ccc(C#N)cc3)c2)cc1 (centres undefined)	181 to 183 °C
N#CCC1CCN1C(c1ccccc1)c1ccccc1 (centres undefined)	82 to 85 °C
COc1ccc(-c2nc(SCC(C)=O)[nH]c2-c2ccc(OC)cc2)cc1	115 to 118 °C
c1ccc(-c2ccc(-c3nc(COc4ccc(CCCn5ccnc5)cc4)co3)o2)cc1	130 to 131 °C
CCOC(=O)c1c(-c2ccncc2)[nH]c(-c2ccncc2)c1C	206 to 208 °C
CC(Sc1nc(N)c(Br)c(Cl)n1)c1cc2ccccc2cn1 (centres undefined)	173 to 174 °C
CC(=O)OC[C@H]1OC(O)(Cl)[C@H](NC(=O)c2cccnc2)[C@@H](OC(C)=O)[C@@H]1OC(C)=O (some centres undefined)	175 to 176 °C
Cn1nc(O)c2ccccc2c1=O	243 to 244 °C
CC(C)(C)Cc1c(C(C)(C)C)ssc1=S	81 °C
Ic1cccc(C=Cc2ccccc2)c1	96 °C
CCCCCCCCCc1c(Cl)nc(-c2ccc(OC)c(F)c2)nc1Cl	59 to 60 °C
COc1ncccc1NC(=NC#N)NC(NC(=O)c1cc(Cl)cc(Cl)c1)C(C)(Cl)Cl (centres undefined)	149 to 150 °C

SMILES	melting point
COc1ccccc1Oc1coc(C(=O)O)cc1=O	202 to 203 °C
O=C(O)c1c(-c2cnccn2)ssc1=S	225 °C
Cc1ccc(-c2ccccc2)cc1Cn1c(Cl)nn(C)c1=O	116 °C
CCC1CN(C2C(=O)N(c3c(Cl)cc(Cl)cc3Cl)N=C2NC(=O)c2cccc(NC(=O)COc3ccc(C(C)(C)CC)cc3C(C)(C)CC)c2)CCC1C (centres undefined)	145 to 155 °C
Nc1oc2ccc([N+](=O)[O-])cc2c(=O)c1C=O	228 to 229 °C
CC12CCC(=O)C=C1CCC1C2CCC2(C)C1CCC2(O)C(=O)CCl (centres undefined)	239 °C
FC(F)(F)CNc1ccc2c(c1)N1CCN=C1S2	212 °C
c1cc2c3c(c1)[C@H]1CCC[C@H]1N3CCNCC2 (relative stereo)	> 130 °C
CCOC(=O)COc1ccc2c(-c3ccccc3F)noc2c1Br	130 to 131 °C
O=C(CCC1C(=S)Nc2ccccc21)NCc1ccccc1 (centres undefined)	114 °C
O=C(c1ccc2c(c1)OC(F)(F)C(=O)N2)N1CCOCC1	214 to 217 °C
C[C@@H]1S[C@@H](C(=O)Nc2ccc(CN3CCOCC3)cc2)Cc2cc3c(cc2C1=O)OCO3	172 to 174 °C
O=C(O)C(Oc1ccc(Cl)cc1)(C(F)(F)F)C(F)(F)F	81 to 83 °C
Cn1c(C(F)(F)F)cc(=O)n(-c2c(F)cc(Cl)c3cc(CO)oc23)c1=O	198 to 199 °C
Cc1cccc2c(=O)n([C@H](C)[C@](O)(Cn3cncn3)c3ccc(F)cc3F)cnc12	141 to 144 °C
COc1cc(Nc2c(C#N)cnc3cc(I)sc23)cc(OC)c1OC	254 to 256 °C
COc1ccc(C2=NN(C)C(=O)CC2)cc1	133 to 135 °C
CCOC(=O)Cc1c(C)nc(SCc2ccc(OC)cc2)n1C	158 to 160 °C
O=C(c1c[nH]c(C(=O)CCl)c1)c1ccc2ccccc2c1	175 to 177 °C
